Data reported in PMC6123363, “Functional Characterization of c-di-GMP Signaling-Related Genes in the Probiotic Lactobacillus acidophilus” (Frontiers in Microbiology, 2018).

How the values were obtained:
MBP-PdeA = target: T1, MBP-PdeA (Lactobacillus acidophilus, UniProt Q5FJ85); experiment: PDE assay, reversed-phase HPLC; format: biochemical; conditions: 10 μM enzyme, 100 μM c-di-GMP, 5 mM MgCl2, 50 mM Tris-HCl pH 9.35, 37 °C
T1 construct: gene LBA1414; pdeA (EAL domain only protein), MBP fusion in pMAL-c2, expressed in E. coli BL21, amylose column; MBP kept
T1 sequence (Q5FJ85 1-231): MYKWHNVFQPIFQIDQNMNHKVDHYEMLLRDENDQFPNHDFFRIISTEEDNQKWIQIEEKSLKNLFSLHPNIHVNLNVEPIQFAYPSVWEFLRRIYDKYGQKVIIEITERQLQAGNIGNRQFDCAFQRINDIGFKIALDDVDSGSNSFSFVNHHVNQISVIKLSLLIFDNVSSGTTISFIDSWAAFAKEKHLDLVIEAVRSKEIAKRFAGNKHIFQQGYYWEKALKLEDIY

[1] = target: T2, MBP-EALpdeB (EAL domain of PdeB) (Lactobacillus acidophilus, UniProt Q5FJ84); experiment: equilibrium dialysis with HPLC quantification; format: binding
T2 construct: gene LBA1415; EAL domain (residues 32-267, ELLLR motif, no N-terminal membrane targeting signal), MBP fusion in pMAL-c2, expressed in E. coli BL21, amylose column; MBP kept
T2 sequence (Q5FJ84 32-267): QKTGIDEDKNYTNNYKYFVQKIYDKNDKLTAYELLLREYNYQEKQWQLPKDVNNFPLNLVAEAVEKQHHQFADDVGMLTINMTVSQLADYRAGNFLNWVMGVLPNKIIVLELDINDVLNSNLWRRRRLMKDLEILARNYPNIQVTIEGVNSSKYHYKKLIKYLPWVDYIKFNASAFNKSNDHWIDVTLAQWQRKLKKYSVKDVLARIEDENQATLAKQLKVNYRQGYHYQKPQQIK

Kd [1] [µM]	SMILES	PDE assay, reversed-phase HPLC (MBP-PdeA)
4.87 ± 0.89	Nc1nc2c(ncn2[C@@H]2O[C@@H]3COP(=O)(O)O[C@H]4[C@@H](O)[C@H](n5cnc6c(=O)[nH]c(N)nc65)O[C@@H]4COP(=O)(O)O[C@H]3[C@H]2O)c(=O)[nH]1 [c-di-GMP]	PdeA was able to hydrolyze c-di-GMP to pGpG
–	Nc1nc2c(ncn2[C@@H]2O[C@H](COP(=O)(O)O[C@H]3[C@@H](O)[C@H](n4cnc5c(=O)[nH]c(N)nc54)O[C@@H]3COP(=O)(O)O)[C@@H](O)[C@H]2O)c(=O)[nH]1 [pGpG]	The PdeA enzymatic reaction product corresponded to the retention time of the pGpG
